From patent EP4467535A1, “LACTAM PESTICIDAL COMPOUNDS” (priority 2023, dated 2024)

Experiments:
Type in all cases: in vivo
[1] = tested on: Orchid thrips (Dichromothrips corbetti); assay: Action on Orchid thrips (Dichromothrips corbetti), floral-immersion technique; settings: adult thrips on dipped orchid petals, 72 hours after treatment, read-out: mortality in comparison with untreated controls
Method: Example B2: Action on Orchid thrips (Dichromothrips corbetti)
Dichromothrips corbetti adults used for bioassay were obtained from a colony maintained continuously under laboratory conditions. For testing purposes, the test compound is diluted in a 1:1 mixture of acetone:water (vol:vol), plus Kinetic® HV at a rate of 0.01% v/v.
Thrips potency of each compound was evaluated by using a floral-immersion technique. All petals of individual, intact orchid flowers were dipped into treatment solution and allowed to dryin Petri dishes. Treated petals were placed into individual re-sealable plastic along with about 20 adult thrips. All test arenas were held under continuous light and a temperature of about 28°C for duration of the assay. After 3 days, the numbers of live thrips were counted on each petal. The percent mortality was recorded 72 hours after treatment.

[2] = tested on: Diamond back moth (Plutella xylostella); assay: Action on Diamond back moth (Plutella xylostella), 96-well microtiter plate insect diet test; settings: 120 h, read-out: mortality in comparison with untreated controls
Method: Example B8: Action on Diamond back moth (Plutella xylostella)
For evaluating control of diamond back moth (Plutella xylostella) the test unit consisted of 96-well-microtiter plates containing an insect diet and 15-25 P. xylostella eggs. The compounds or mixtures were formulated using a solution containing 75% water and 25% DMSO. Different concentrations of formulated compounds or mixtures were sprayed onto the insect diet at 5µl, using a custom-built micro atomizer, at two replications. For experimental mixtures in these tests identical volumes of both mixing partners at the desired concentrations respectively, were mixed together. After application, microtiter plates were incubated at 28 ± 1°C, 80 ± 5 % relative humidity for 5 days. Egg and larval mortality was then visually assessed.

[3] = tested on: Tobacco budworm (Heliothis virescens); assay: Action on Tobacco budworm (Heliothis virescens), 96-well microtiter plate insect diet test; settings: 120 h, egg and larval mortality visually assessed after 5 days, read-out: mortality in comparison with untreated controls
Method: Example B5: Action on Tobacco budworm (Heliothis virescens)
For evaluating control of tobacco budworm (Heliothis virescens) the test unit consisted of 96-well-microtiter plates containing an insect diet and 15-25 H. virescens eggs.
The compounds were formulated using a solution containing 75% v/v water and 25% v/v DMSO. Different concentrations of formulated compounds were sprayed onto the insect diet at 10 µl, using a custom-built micro atomizer, at two replications.
After application, microtiter plates were incubated at about 28 + 1°C and about 80 + 5 % relative humidity for 5 days. Egg and larval mortality were then visually assessed.

[4] = tested on: Yellow fever mosquito (Aedes aegypti); assay: whole plant or invertebrate; settings: 48 h, larval mortality visually assessed after 2 days at 28 ± 1°C, read-out: mortality in comparison with untreated controls
Method: Example B1: Action on Yellow fever mosquito (Aedes aegypti)
For evaluating control of yellow fever mosquito (Aedes aegypti) the test unit consisted of 96-well-microtiter plates containing 200µL of tap water per well and 5-15 freshly hatched A. aegypti larvae.
The active compounds or mixtures were formulated using a solution containing 75% (v/v) water and 25% (v/v) DMSO. Different concentrations of formulated compounds or mixtures were sprayed onto the insect diet at 2.5µL, using a custom-built micro atomizer, at two replications.
For experimental mixtures in these tests identical volumes of both mixing partners at the desired concentrations respectively, were mixed together.
After application, microtiter plates were incubated at 28 ± 1°C, 80 ± 5 % relative humidity for 2 days. Larval mortality was then visually assessed.

[5] = tested on: Southern armyworm (Spodoptera eridania), second instar larvae; assay: Action on Southern armyworm (Spodoptera eridania), sprayed lima bean plants; settings: 96 h, 4 days after treatment, read-out: mortality in comparison with untreated controls
Method: Example B7: Action on Southern armyworm (Spodoptera eridania), second instar larvae
The active compounds were formulated by a Tecan liquid handler in 100% cyclohexanone as a 10,000 ppm solution supplied in tubes. The 10,000 ppm solution was serially diluted in 100% cyclohexanone to make interim solutions. These served as stock solutions for which final dilutions were made by the Tecan in 50% acetone:50% water (v/v) into 10 or 20 mL glass vials. A nonionic surfactant (Kinetic®) was included in the solution at a volume of 0.01% (v/v). The vials were then inserted into an automated electrostatic sprayer equipped with an atomizing nozzle for application to plants/insects.
Lima bean plants (variety Sieva) were grown 2 plants to a pot and selected for treatment at the 1st true leaf stage. Test solutions were sprayed onto the foliage by an automated electrostatic plant sprayer equipped with an atomizing spray nozzle. The plants were dried in the sprayer fume hood and then removed from the sprayer. Each pot was placed into perforated plastic bags with a zip closure. About 10 to 11 armyworm larvae were placed into the bag and the bags zipped closed. Test plants were maintained in a growth room at about 25°C and about 20-40% relative humidity for 4 days, avoiding direct exposure to fluorescent light (24 hour photoperiod) to prevent trapping of heat inside the bags. Mortality and reduced feeding were assessed 4 days after treatment, compared to untreated control plants.

[6] = tested on: Boll weevil (Anthonomus grandis); assay: Action on Boll weevil (Anthonomus grandis), 96-well microtiter plate insect diet test; settings: 120 h, egg and larval mortality visually assessed after 5 days, read-out: mortality in comparison with untreated controls
Method: Example B3: Action on Boll weevil (Anthonomus grandis )
For evaluating control of boll weevil (Anthonomus grandis) the test unit consisted of 96-well-microtiter plates containing an insect diet and 5-10 A. grandis eggs.
The compounds were formulated using a solution containing 75% (v/v) water and 25% (v/v) DMSO. Different concentrations of formulated compounds were sprayed onto the insect diet at 5 µL, using a custom-built micro atomizer, at two replications.
After application, microtiter plates were incubated at about 25 + 1°C and about 75 + 5 % relative humidity for 5 days. Egg and larval mortality were then visually assessed.

[7] = tested on: Diamond back moth (Plutella xylostella); assay: Action on Diamond back moth (Plutella xylostella), cabbage leaf dip test; settings: foliar, third instar larvae on dipped cabbage leaves, 72 hours after treatment, read-out: mortality in comparison with untreated controls
Method: Example B6: Action on Diamond back moth (Plutella xylostella)
The active compound is dissolved at the desired concentration in a mixture of 1:1 (v/v) distilled water: acetone. Surfactant (Kinetic® HV) is added at a rate of 0.01% (v/v). The test solution is prepared at the day of use.
Leaves of cabbage were dipped in test solution and air-dried. Treated leaves were placed in petri dishes lined with moist filter paper and inoculated with ten third instar larvae. Mortality was recorded 72 hours after treatment. Feeding damages were also recorded using a scale of 0-100%.

Row | Compound | mortality at 300 ppm [1] | mortality at 800 ppm [2] | mortality at 800 ppm [3] | mortality at 800 ppm [4] | mortality at 300 ppm [5] | mortality at 800 ppm [6] | mortality at 300 ppm [7]
1 | Cc1ccc(C(C)C)c(N/C(=N/N=C/c2ccc(-c3nn(C)c(N4Cc5cc(OC(F)(F)F)ccc5C4=O)c3C)cc2)SCOC(=O)C(C)C)c1 [C-3, [(Z)-N'-[(E)-[4-[1,4-dimethyl-5-[1-oxo-5-(trifluoromethoxy)isoindolin-2-yl]pyrazol-3-yl]phenyl]methyleneamino]-N-(2-isopropyl-5-methyl-phenyl)carbamimidoyl]sulfanylmethyl 2-methylpropanoate] | ≥ 75% | ≥ 75% | ≥ 75% | ≥ 50% | ≥ 75% | ≥ 75% | 
2 | Cc1ccc(C(C)C)c(NC(=S)N/N=C/c2ccc(-c3nn(C)c(N4CCc5cc(OC(F)(F)F)ccc5C4=O)c3C)cc2)c1 [C-7, 1-[(E)-[4-[1,4-dimethyl-5-[1-oxo-6-(trifluoromethoxy)-3,4-dihydroisoquinolin-2-yl]pyrazol-3-yl]phenyl]methyleneamino]-3-(2-isopropyl-5-methyl-phenyl)thiourea] | ≥ 75% | ≥ 75% | ≥ 75% | ≥ 50% | ≥ 75% | ≥ 75% | 
3 | Cc1ccc(C(C)C)c(N2C(=O)CS/C2=N\C(=O)Nc2ccc(-c3nn(C)c(N4CCc5cc(OC(F)(F)F)ccc5C4=O)c3C)cc2Cl)c1 [C-12, (3Z)-1-[2-chloro-4-[1,4-dimethyl-5-[1-oxo-6-(trifluoromethoxy)-3,4-dihydroisoquinolin-2-yl]pyrazol-3-yl]phenyl]-3-[3-(2-isopropyl-5-methyl-phenyl)-4-oxo-thiazolidin-2-ylidene] urea] | ≥ 75% |  | ≥ 75% | ≥ 50% | ≥ 75% | ≥ 75% | ≥ 75%
4 | CCOC(=O)OCS/C(=N\N=C\c1ccc(-c2nn(C)c(N3Cc4cc(OC(F)(F)F)ccc4C3=O)c2C)cc1)Nc1cc(C)ccc1C(C)C [C-4, [(Z)-N'-[(E)-[4-[1,4-dimethyl-5-[1-oxo-5-(trifluoromethoxy)isoindolin-2-yl]pyrazol-3-yl]phenyl]methyleneamino]-N-(2-isopropyl-5-methyl-phenyl)carbamimidoyl]sulfanylmethyl ethyl carbonate] | ≥ 75% | ≥ 75% | ≥ 75% | ≥ 50% | ≥ 75% | ≥ 75% | 
5 | Cc1ccc(C(C)C)c(N2C(=O)CS/C2=N\N=C\c2ccc(-c3nn(C)c(N4CCc5cc(OC(F)(F)F)ccc5C4=O)c3C)cc2)c1 [C-8, (2Z)-2-[(E)-[4-[1,4-dimethyl-5-[1-oxo-6-(trifluoromethoxy)-3,4-dihydroisoquinolin-2-yl]pyrazol-3-yl]phenyl]methylenehydrazono]-3-(2-isopropyl-5-methyl-phenyl)thiazolidin-4-one] | ≥ 75% |  | ≥ 75% | ≥ 50% | ≥ 75% | ≥ 75% | ≥ 75%
6 | Cc1ccc(C(C)C)c(N2C(=O)CS/C2=N\C(=O)Nc2ccc(-c3nn(C)c(N4CCc5cc(OC(F)(F)F)ccc5C4=O)c3C)cc2)c1 [C-11, (3Z)-1-[4-[1,4-dimethyl-5-[1-oxo-6-(trifluoromethoxy)-3,4-dihydroisoquinolin-2-yl]pyrazol-3-yl]phenyl]-3-[3-(2-isopropyl-5-methyl-phenyl)-4-oxo-thiazolidin-2-ylidene]urea] | ≥ 75% |  | ≥ 75% | ≥ 50% | ≥ 75% | ≥ 75% | ≥ 75%
7 | Cc1ccc(C(C)C)c(N2C(=O)CS/C2=N\N=C\c2ccc(-c3nc(N4CCc5cc(OC(F)(F)F)ccc5C4=O)n(C)n3)cc2)c1 [C-9, (2Z)-3-(2-isopropyl-5-methyl-phenyl)-2-[(E)-[4-[1-methyl-5-[1-oxo-6-(trifluoromethoxy)-3,4-dihydroisoquinolin-2-yl]-1,2,4-triazol-3-yl]phenyl]methylenehydrazono] thiazolidin-4-one] | ≥ 75% | ≥ 75% | ≥ 75% | ≥ 50% | ≥ 75% | ≥ 75% | 
8 | Cc1ccc(C(C)C)c(NC(=S)N/N=C/c2ccc(-c3nn(C)c(N4Cc5cc(OC(F)(F)F)ccc5C4=O)c3C)cc2)c1 [C-1, 1-[(E)-[4-[1,4-dimethyl-5-[1-oxo-5-(trifluoromethoxy)isoindolin-2-yl]pyrazol-3-yl]phenyl]methyleneamino]-3-(2-isopropyl-5-methyl-phenyl)thiourea] | ≥ 75% |  | ≥ 75% | ≥ 50% | ≥ 75% | ≥ 75% | ≥ 75%
